Measured values as given in patent publication US20190142835A1, “INHIBITION OF AUTOPHAGY USING PHOSPHOLIPASE A2 INHIBITORS” (OREGON HEALTH & SCIENCE UNIVERSITY, priority 2017, published 2019).

Legend:
ACHN cells [1] = experiment: High content imaging screen of 116 small molecule inhibitors for p62 and pS6; type: cell-based, human; settings: HCI screen, 72 hr; for p62 expression and phosphorylation of S6: 7-point dilution series
Source text: We used a metastatic human RCC cell line, ACHN. Small molecule inhibitors have been extensively used in RCC over the last decade. […] Importantly, p62 is an autophagy substrate that is degraded along with its cargo, and so is expected to decrease with induction of autophagy. Therefore, we monitored p62 steady-state levels as an initial screen of autophagy flux. Next, we combined the measurement of the p62 with a measurement of mTORC1 activity an independent readout to evaluate autophagy. mTORC1 plays the central role in the anabolic process by increasing protein content through ribosomal biogenesis and elongation of protein translation. Specifically, mTORC1 induces mRNA translation by inducing the activation of p70S6 kinase and the subsequent phosphorylation of the S6 ribosomal protein. To ensure increased cellular biomass, mTORC1 downregulates autophagy. We chose the phosphorylation status of the downstream target of mTORC1 signaling, ribosomal S6 (hereafter S6) as a readout for mTORC1 activity.
To provide a straightforward method for detecting the induction of autophagy, we monitored ACHN cells for small molecule inhibitors which decreased the antibody labelled levels of p62 protein and pS6 phosphorylation (see methods below for detailed experiment procedure). To that end, automated high content imaging (HCl) microscopy was used to detect induction of autophagy as documented by the […] by p62 protein expression and mTORC1 inhibition by the decrease in S6 phosphorylation. The HCl assay was optimized for 384-well plate screening. Drug screening plates were designed and created as previously described.
A 7-point dilution series of 116 small molecule inhibitors covering a 1000× concentration range were plated into three, 384-well plates using the EP Motion automated dispensing system. Control wells with equal volumes of DMSO were included as negative controls. ACHN cells were grown, trypsinized counted, and plated directly into warm drug plates using Multidrop combi dispenser. Plates were incubated for 72 hr and subsequently imaged on the Olympus ScanR Platform at 10× magnification performing 4 images per well in 384 well plates. Single-cell nuclear and cytoplasmic fluorescent intensities were calculated using the Olympus ScanR Analysis Software: the DAPI-positive region of each cell was used as a boundary to quantitate nuclei counts for analysis of cell growth and integrated nuclear DNA staining intensity was used for cell cycle analysis. A 10-pixel extension of the nuclear region (and not including the nuclear region) was used to quantitate cytoplasmic signal of immunofluorescent staining of p62 protein and phosphorylation of S6. Mean signal intensity of each marker in all cells per well was used as the metric for cytoplasmic marker expression (average intensity of pS6 and p62). Unsupervised hierarchical clustering was used to identify compounds that produced similar pS6 and p62 dose response phenotypes after treatment.

ACHN cells [2] = experiment: Apoptosis (Caspase 3/7-Glo), ACHN; type: cell-based, human
Experimental: (§1) Apoptosis was determined using Caspase 3/7-Glo assay kit (Promega) following the manufacturer's instructions. Briefly, 2000 cells per well were plated in 96 well plates and cultured for 72 h. […] Caspase 3/7 activity was measured using a luminometer. Luminescence values were normalized by cell numbers.

ACHN cells [3] = experiment: Cell viability (CellTiter-Glo), ACHN; type: cell-based, human; settings: for proliferation (cell viability): ACHN, 3 days
Experimental: (§2) Cell viability assays were performed by plating 2000 cells/well in 96-well plates in triplicate and treating the following day with the indicated agent. The experiment was continued for 3 days and then cell viability was determined using CellTiter-Glo assay kit (Promega).
The assay was measured using a luminometer. […] Experimental results are the average of at least three independent experiments.

[4] = test system: PI3K, mTORC1 and mTORC2 signaling; experiment: Western blotting of PI3K-AKT-mTOR signaling; type: cell-based, human
Experimental: Cells were plated in 6 well dishes and treated the following day with the indicated agents. Treatments were for 24 hours, after which cells were washed with ice cold PBS and lysed with RIPA buffer (Sigma). Phosphatase inhibitor cocktail set II and protease inhibitor cocktail set III (EMD Millipore) were added at the time of lysis. Lysates were centrifuged at 15,000 g×10 min at 4 degrees C. Protein concentrations were calculated based on a BCA assay (Thermo Scientific) generated standard curve. Proteins were resolved using the NuPAGE Novex Mini Gel system on 4% to 12% Bis-Tris Gels (Invitrogen). For western blotting, equal amounts of cell lysates (15-20 μg of protein) were resolved with SDSPAGE, and transferred to membranes. The membrane was probed with primary antibodies, washed, and then incubated with corresponding fluorescent secondary antibodies and washed. The fluorescent signal was captured using LI-COR (Lincoln, Nebr.) Odyssey Imaging System, and fluorescent intensity was quantified using the Odyssey software where indicated. The following antibodies were used for Western blots: p-S6 (S240/244), S6, LC3B, p-Akt(S473), p-Akt(T308), Akt, cleaved caspase3 (Cell Signaling Technologies). p-Stat3 (Y705), Stat3 and β-actin (AC15) (Abcam). Ki67 (Dako) and cleaved caspase3 (Cell Signaling Technologies) were used for immunohistochemistry. […] BX795 and GDC0941 were purchased from Sigma.

SN12C cells [5] = experiment: Cell viability (CellTiter-Glo), SN12C; type: cell-based, human; settings: 3 days
Experimental: as §2, with “(Promega). The assay was measured using a luminometer. […] Experimental results are the average of at least three independent experiments.” for “(Promega).”

SN12C cells [6] = experiment: Apoptosis (Caspase 3/7-Glo), SN12C; type: cell-based, human; settings: 72 h
Experimental: as §1

mTORC1 = experiment: Autophagy induction and mTORC1 inhibition by JAK inhibitors not contained in the library; type: cell-based
ACHN cells [7] = experiment: Lipid droplet staining (Bodipy 493/503), ACHN; type: cell-based, human
Experimental: Cells were grown on coverslips then treated with drug for 24 hours. Cells were fixed in 4% paraformaldehyde for 15 min, rinsed with PBS. Cells were washed with a 1% saponin solution for 15 min at room temperature then washed several times in PBS to remove detergent. Cells were then incubated in Bodipy (ThermoFisher #D3922) at a final concentration of 1 uM for 10 min. Bodipy was removed and slides were rinsed with PBS then air dried and mounted on slides using Dako mounting media with Dapi.

ACHN cells [8] = experiment: Cellular respiration (XF96 Seahorse, ECAR and OCR); type: cell-based, human; settings: 24 h
Experimental: Oxygen consumption and extracellular acidification rates were carried out in a XF96 Seahorse Analyzer (Seahorse Bioscience, Billerica, Mass., USA). Cells were plated in the wells of 96-well plates (8×10^3 cells/well; XF96 plates, Seahorse Bioscience, North Billerica, Mass.) and incubated at 37° C. overnight. The next day, cells were treated with indicated drugs for 24 hours and then the medium was changed to XF Assay Medium and loaded with glucose, oligomycin, and 2-DG, respectively, as manufacture's recommendation.

## CN[C@@H]1C[C@H]2O[C@@](C)([C@@H]1OC)n1c3ccccc3c3c4c(c5c6ccccc6n2c5c31)C(=O)NC4 [Staurosporine]
ACHN cells [1]
  p62 expression and phosphorylation of S6: reduced both p62 expression and phosphorylation of S6

## O=C(NCCCNc1nc(Nc2cccc(NC(=O)N3CCCC3)c2)ncc1I)c1cccs1 [BX795]
ACHN cells [2]; ACHN, 72 h
  apoptosis (cleaved-caspase 3/7): little or no effect on apoptosis
ACHN cells [3]
  proliferation (cell viability): some anti-proliferative effects
[4]
  mTORC1 or mTORC2 signaling (AKT S473 and S6 phosphorylation): not able to inhibit mTORC1 or mTORC2 signaling
SN12C cells [5]
  proliferation (cell viability): some anti-proliferative effects
SN12C cells [6]
  apoptosis (cleaved-caspase 3/7): little or no effect on apoptosis

## CS(=O)(=O)N1CCN(Cc2cc3nc(-c4cccc5[nH]ncc45)nc(N4CCOCC4)c3s2)CC1 [GDC-0941]
ACHN cells [3]
  proliferation (cell viability): some anti-proliferative effects
[4]; added to CYT387
  effect on mTORC1 activity in cells treated with CYT387: additive inhibitory effect on mTORC1 activity
SN12C cells [5]
  proliferation (cell viability): some anti-proliferative effects

## Oc1nc(-c2ccc(C(F)(F)F)cc2)nc2c1CSCC2 [XAV939]
ACHN cells [1]
  induction of autophagy / autophagic flux: induce autophagy

## O=C(c1ccc(/C=C/c2n[nH]c3ccccc23)cc1)N1CCNCC1 [KW2449]
ACHN cells [1]
  induction of autophagy / autophagic flux: induce autophagy

## CC(C)n1nc(-c2cc3cc(O)ccc3[nH]2)c2c(N)ncnc21 [PP-242]
ACHN cells [1]
  p62 expression and phosphorylation of S6: reduced both p62 expression and phosphorylation of S6

## CN1CC[C@H](c2c(O)cc(O)c3c(=O)cc(-c4ccccc4Cl)oc23)[C@H](O)C1 [Flavopiridol]
ACHN cells [1]
  p62 expression and phosphorylation of S6: reduced both p62 expression and phosphorylation of S6

## C[C@]12O[C@H](C[C@]1(O)CO)n1c3ccccc3c3c4c(c5c6ccccc6n2c5c31)CNC4=O [CEP-701]
mTORC1
  autophagy induction: potently induced autophagy
  mTORC1 inhibition: inhibited mTORC1

## O=S(=O)(NCCNC/C=C/c1ccc(Br)cc1)c1cccc2cnccc12 [H89]
ACHN cells [1]
  p62 expression and phosphorylation of S6: reduced both p62 expression and phosphorylation of S6

## CC(C)C[C@H](NC(=O)[C@H](Cc1ccccc1)NC(=O)c1cnccn1)B(O)O [Velcade]
ACHN cells [1]
  p62 expression and phosphorylation of S6: reduced both p62 expression and phosphorylation of S6

## Cn1c(=O)n(-c2ccc(C(C)(C)C#N)cc2)c2c3cc(-c4cnc5ccccc5c4)ccc3ncc21 [BEZ-235]
ACHN cells [1]
  p62 expression and phosphorylation of S6: reduced both p62 expression and phosphorylation of S6

## CCCCCCCC/C=C\CCCCCCCCOCCOP(=O)([O-])OCC[N+](C)(C)C [OOEPC, oleyloxyethylphosphocholine]
ACHN cells [2]
  apoptosis (Caspase3/7 activity) on addition to CYT387, MK2206, CYT387+MK2206: significantly increased apoptosis
ACHN cells [3]
  proliferation on co-treatment with CYT387, MK2206, CYT387+MK2206: minimal additional effect on proliferation
ACHN cells [7]; 24 hrs
  LD abundance on addition to CYT387, MK2206 and CYT387-MK2206 co-treated cells: significantly reduced the LD abundance
ACHN cells [8]
  ECAR and OCR on addition to the CYT387-MK2206 combination: markedly decreased ECAR and OCR
  basal OCR on addition to the CYT387-MK2206 combination: marked decrease in the basal OCR
  spare respiratory capacity on addition to the CYT387-MK2206 combination: significantly reduced the spare respiratory capacity

## CCc1c(C(=O)C(N)=O)c2c(OCC(=O)O)cccc2n1Cc1ccccc1 [varespladib]
ACHN cells [2]
  apoptosis on addition to CYT387-MK2206 treated cells: increased apoptosis
ACHN cells [7]
  LDs on addition to CYT387-MK2206 treated cells: decreased LDs
